Results as given in paper PMC5895880 (Frontiers in Pharmacology, 2018).
One block for each compound: values may come before it.

How the values were obtained:
mGluR5 [1] = target: T1, mGluR5 (Rattus norvegicus, UniProt P31424); design: method as in Bradley et al., 2011; settings: ref Bradley et al., 2011; cited from earlier work
mGluR5 [2] = target: T1, mGluR5; design: method as in Bradley et al., 2011; settings: ref Bradley et al., 2011; cited from earlier work; remark: listed apart in the source
mGluR5 [3] = target: T1, mGluR5; experiment: Calcium mobilization (intracellular calcium levels) in primary cultures of rat cortical astrocytes; format: cell-based; settings: for EC50: GET73 0 (absence)
Protocol: The experiments have been performed on primary cultures of rat cortical astrocytes. These cells express mGlu5Rs ([Zhang et al., 2005]).
Primary cultures of cerebral cortical astrocytes were obtained from newborn rats (1 or 2 days old). Briefly, cerebral cortices were removed and dissociated by mild trypsinization at 37°C, followed by mechanical trituration to obtain single cells. Cells were suspended in the culture medium [Gibco® DMEM, 5% inactivated fetal bovine serum (Thermo-Fisher Scientific, Waltham, MA, United States), 100 IU/ml penicillin, and 100 μg/ml streptomycin (all from Sigma-Aldrich, Milan, Italy)] and then seeded in 75-cm^2 flasks at a density of 3 × 10^6 cells/flask. The cells were incubated at 37°C in a humidified atmosphere, 5% CO2/95% air. The culture medium was replaced after 24 h and again twice weekly until astrocytes were grown to form a monolayer firmly attached to the bottom of the flask (12 or 14 days after dissection). At cell confluence, flasks were vigorously shaken to separate astrocytes (which remained adherent in the bottom of the flasks) from microglia and oligodendrocytes (which floated on the supernatant) ([Tomasini et al., 2015]). Collected astrocytes were counted and then plated in poly-L-lysine at a density of 50,000 cells/well or 96-well plates black, clear bottom plates (Corning®; Sigma-Aldrich, Milan, Italy).
Subsequently 100 μl/well of the same buffer were added for 10 min. […] After placing cell culture and compound plates into the FlexStation II (Molecular Devices, Sunnyvale, CA, United States), the on-line additions were carried out in a volume of 50 μl /well and fluorescence changes were continuously measured for 2 min at 37°C.
(§1) EC50 values were calculated using non-linear regression [curve fit, log(agonist) vs. response, variable slope, four parameters]. Statistical analysis (F-test) has been performed by using GraphPad Prism 6.0 (GraphPad Software Inc., San Diego, CA, United States). Statistical differences between group means for EC50 values were also assessed by ANOVA followed by Tukey’s multiple comparisons test. Data are reported as mean ± SEM of three independent experiments. A p-value < 0.05 was considered statistically significant.

[4] = ref Haass-Koffler et al., cited from earlier work
hippocampal neurons = test system: hippocampal neurons; design: method as in Tomasini et al., 2016; settings: hippocampal neurons exposed to 0.1 to 10 μM; ref Tomasini et al., 2016; cited from earlier work
[5] = test system: dopamine, serotonin, GABA, ionotropic glutamate receptors, dopamine and serotonin reuptake systems; design: method as in Loche et al., 2012; settings: ref Loche et al., 2012; cited from earlier work
mGluR5 [6] = target: T1, mGluR5; experiment: pCREB (Ser133) levels in primary cultures of rat cortical neurons; format: cell-based; settings: for EC50: rat cerebral cortex neurons
Protocol: The experiments have been performed on primary cultures of rat cortical neurons. These cells express mGlu5Rs ([Koga et al., 2010]).
Primary cultures of cerebral cortical neurons were prepared from 1-day-old rats. Cortices free of meninges were dissociated in 0.025% (w/v) trypsin at 37°C followed by mechanical repeated gentle pipetting through wide- and narrow-bore fire-polished Pasteur pipettes in culture medium [Neurobasal medium (Gibco, Grand Island, NY, United States) supplemented with 0.1 mM glutamine (Sigma-Aldrich, Milan, Italy), 10 μg/ml gentamicin (Sigma-Aldrich, Milan, Italy) and 2% B-27® Supplement (50X), serum free (Gibco, Grand Island, NY, United States)]. Cells were counted and then plated on poly-L-lysine (5 μg/ml)-coated multiwells. Cytosine arabinoside (10 μM; Sigma-Aldrich, Milan, Italy) was added within 24 h of plating to prevent glial cell proliferation. After 8 days of in vitro incubation (days in vitro: DIV), cultures were used for experiments.
pCREB measurement was performed with the pCREB (Ser133) Assay kit (PerkinElmer Italy, Milan). Briefly, cortical neurons were seeded in 96 well tissue culture plates at a density of 4,000 cells/well and incubated at 37°C overnight. […] The lysates were transferred to a 96-well ½AreaPlate^TM for the assay. The Acceptor Mix was added for 1 h at room temperature and the Donor mix was added to wells under subdue light and incubate for 1 h at room temperature. At the end of this period, raw “AlphaScreen Signal counts” were measured by an Alpha Technology®-compatible plate reader, using standard AlphaLISA settings (excitation 680 nm, emission 615 nm).
as §1

alcohol intake = test system: alcohol intake; design: method as in Loche et al., 2012; Ferraro et al., 2013; settings: preclinical studies; ref Loche et al., 2012; Ferraro et al., 2013; cited from earlier work
mGluR5 [7] = target: T1, mGluR5; experiment: Inositol phosphate (phosphatidylinositol) turnover in rat hippocampus slices; format: cell-based; settings: for Effect on L-quisqualate concentration-response curve, phosphatidylinositol turnover / Effect on CHPG (10 mM)-induced increase in phosphatidylinositol turnover / Effect on glutamate concentration-response curve, phosphatidylinositol turnover / EC50: rat hippocampus slices; for EC50: read-out: EC50 of L-quisqualate, phosphatidylinositol turnover
Protocol: The experiments have been performed on rat hippocampus slices. This preparation expresses mGlu5Rs ([Zhang et al., 2005]; [Purgert et al., 2014]).
On the day of the experiment, the animals were euthanized, their brain promptly isolated and 400 μm thick slices (15–20 mg each) were obtained from both the left and right hippocampi, by using a McIlwain tissue Chopper fresh tissue. The tissue was then allowed to equilibrate for 20 min at room temperature in Krebs’ solution (composition in mM: NaCl 118; KC1 4.4; CaC1_2 1.2; MgS0_4 1.2; KH2P0_4 1.2; NaHC0_3 25; glucose 10) and gassed with a mixture of 95% O2 plus 5% CO2 ([Ferraro et al., 2011]).
Slices were placed in test tubes containing 0.3 ml of oxygenated Krebs solution with myo-[^3H]inositol 0.3 μM (NEN, Boston, MA, United States). […] The reaction was stopped by washing each slice in ice cold Krebs solution containing LiCl 10 mM and by plunging it in 0.94 ml of chloroform-methanol (1:2 v/v). After 10 min, 310 μl of chloroform and 310 μl of water were added and the tubes were shaken for 20 min. The separation of [^3H]inositol phosphates was performed by ion-exchange chromatography on AG 1-X8 resin, 200–400 mesh (Bio-Rad, Hercules, CA, United States), using different elution solutions. The collected IP3-containing fraction was mixed with Safety-Solve cocktail (RPI, Mount Prospect, IL, United States) and the radioactivity was measured by scintillation counting.
as §1

mGluR5 [8] = test system: mGluR5; design: method as in Nickols et al., 2016; settings: ref Nickols et al., 2016; cited from earlier work
mGluR5 [9] = test system: mGluR5; design: method as in Nickols et al., 2016; settings: ref Nickols et al., 2016; cited from earlier work; remark: listed apart in the source

T1 sequence (P31424 21-875 limits assumed): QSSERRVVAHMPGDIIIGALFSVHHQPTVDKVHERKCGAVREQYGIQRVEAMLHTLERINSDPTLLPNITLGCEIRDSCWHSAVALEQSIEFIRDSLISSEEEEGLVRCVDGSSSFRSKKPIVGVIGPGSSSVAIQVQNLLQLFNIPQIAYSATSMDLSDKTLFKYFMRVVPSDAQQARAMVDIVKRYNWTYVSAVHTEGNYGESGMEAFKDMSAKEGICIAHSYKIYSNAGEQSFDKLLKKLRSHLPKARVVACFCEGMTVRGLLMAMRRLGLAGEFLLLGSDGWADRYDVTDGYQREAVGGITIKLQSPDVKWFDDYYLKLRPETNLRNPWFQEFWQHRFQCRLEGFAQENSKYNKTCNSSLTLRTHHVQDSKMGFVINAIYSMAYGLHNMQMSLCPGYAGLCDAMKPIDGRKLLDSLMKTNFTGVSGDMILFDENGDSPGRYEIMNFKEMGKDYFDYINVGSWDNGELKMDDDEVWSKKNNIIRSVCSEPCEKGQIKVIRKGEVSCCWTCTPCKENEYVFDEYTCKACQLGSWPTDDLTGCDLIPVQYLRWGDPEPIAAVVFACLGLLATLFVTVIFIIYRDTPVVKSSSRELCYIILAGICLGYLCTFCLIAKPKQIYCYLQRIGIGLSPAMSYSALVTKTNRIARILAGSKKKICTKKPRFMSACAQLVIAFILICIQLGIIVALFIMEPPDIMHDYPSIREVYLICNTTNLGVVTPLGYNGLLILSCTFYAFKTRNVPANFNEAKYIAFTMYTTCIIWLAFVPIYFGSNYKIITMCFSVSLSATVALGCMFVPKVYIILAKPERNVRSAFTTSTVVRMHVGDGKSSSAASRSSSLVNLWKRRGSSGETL

SMILES: COc1cccc(C#Cc2ccc(C)cn2)c1 [M-5MPEP]
Inhibition of agonist-stimulated Ca++ oscillations (mGluR5 [1]): completely blocking
Inhibition of agonist-stimulated [3H]IP accumulation (mGluR5 [2]): partially inhibiting

Effect on CHPG concentration-response curve, intracellular calcium (mGluR5 [3]; GET73 0.1 nM–10 μM): significant rightward shift
Effect on L-quisqualate concentration-response curve, intracellular calcium (mGluR5 [3]; GET73 0.1 nM–10 μM): failed to significantly modify
Effect on glutamate concentration-response curve, intracellular calcium (mGluR5 [3]; GET73 10 nM–10 μM): significant rightward shift
Effect on glutamate concentration-response curve, intracellular calcium (mGluR5 [3]; GET73 0.1 and 1 nM): ineffective
Agonistic effect on intracellular calcium levels (calcium transient) (mGluR5 [3]; GET73 alone, 0.1 nM–10 μM): ineffective
Effect on glutamate concentration-response curve, pCREB (mGluR5 [6]; GET73 10 nM–10 μM, rat cortical neurons): significant rightward shift
Effect on CHPG concentration-response curve, pCREB (mGluR5 [6]; GET73 100 nM–10 μM, rat cortical neurons): significant rightward shift
Effect on glutamate concentration-response curve, pCREB (mGluR5 [6]; GET73 0.1 and 1 nM, rat cortical neurons): ineffective
Effect on CHPG concentration-response curve, pCREB (mGluR5 [6]; GET73 0.1–10 nM, rat cortical neurons): ineffective
Effect on L-quisqualate concentration-response curve, pCREB (mGluR5 [6]; GET73 0.1–100 nM, rat cortical neurons): ineffective
Effect on L-quisqualate concentration-response curve, pCREB (mGluR5 [6]; GET73 1 and 10 μM, rat cortical neurons): significant rightward shift
Agonistic effect on pCREB levels (mGluR5 [6]; GET73 alone, 0.1 nM–10 μM, rat cortical neurons): ineffective
Effect on L-quisqualate concentration-response curve, phosphatidylinositol turnover (mGluR5 [7]; GET73 10 nM–10 μM): significant rightward shift
Effect on CHPG (10 mM)-induced increase in phosphatidylinositol turnover (mGluR5 [7]; GET73 100 nM, 1 μM and 10 μM): significant reduction
Effect on glutamate concentration-response curve, phosphatidylinositol turnover (mGluR5 [7]; GET73 100 nM–10 μM): significant rightward shift
Effect on L-quisqualate concentration-response curve, phosphatidylinositol turnover (mGluR5 [7]; GET73 0.1 and 1 nM): ineffective
Effect on glutamate concentration-response curve, phosphatidylinositol turnover (mGluR5 [7]; GET73 0.1 and 1 nM): ineffective
Effect on CHPG (10 mM)-induced increase in phosphatidylinositol turnover (mGluR5 [7]; GET73 0.1–10 nM): ineffective
Agonistic effect on phosphatidylinositol turnover (mGluR5 [7]; GET73 alone, 0.1 nM–100 μM, rat hippocampal slices): failed to modify
SMILES: COCCCC(=O)NCc1ccc(C(F)(F)F)cc1 [GET73, N-[4-(trifluoromethyl)benzyl]-4-methoxybutyramide]
Safety and tolerability ([4]; Phase 1 clinical studies, healthy volunteers and alcohol-dependent patients, 2017a,b): safe and well-tolerated
CNS side effects ([4]; two Phase I clinical trials in healthy volunteers and ongoing Phase 1b/2a study in alcohol dependent subjects, 2017a): did not induce any CNS side effects
Neurotoxicity (hippocampal neurons): no signs of neurotoxicity
Affinity for a series of biological targets [5]: did not show affinity
Alcohol intake (alcohol intake): reduce alcohol intake

EC50 (mGluR5 [3]; read-out: EC50 of CHPG, intracellular calcium levels): 1300 ± 90 µM
EC50 (mGluR5 [6]; GET73 0 (absence), read-out: EC50 of CHPG, pCREB levels): 1000 ± 90 µM
EC50 (mGluR5 [6]; in the presence of GET73 0.1 nM, read-out: EC50 of CHPG, pCREB levels): 1000 ± 80 µM
EC50 (mGluR5 [6]; in the presence of GET73 1 nM, read-out: EC50 of CHPG, pCREB levels): 900 ± 40 µM
EC50 (mGluR5 [6]; in the presence of GET73 10 nM, read-out: EC50 of CHPG, pCREB levels): 1400 ± 120 µM
EC50 (mGluR5 [6]; in the presence of GET73 100 nM, read-out: EC50 of CHPG, pCREB levels): 5000 ± 290 µM
Phosphatidylinositol turnover (mGluR5 [7]; CHPG at the higher concentration tested (10 mM), rat hippocampal slices, p < 0.05): 127 ± 4 % of basal levels
SMILES: NC(C(=O)O)c1cc(O)ccc1Cl (racemic) [CHPG, (RS)-2-Chloro-5-hydroxyphenylglycine]

SMILES: CCN(CC)C(=O)c1ccc(C#Cc2cccc(F)c2)cn1 [VU0477573]
Inhibition of agonist-mediated intracellular Ca++ release (mGluR5 [8]): only partially inhibited
Inhibition of ERK1/2 phosphorylation (mGluR5 [9]): fully inhibited

SMILES: N[C@@H](Cn1oc(=O)[nH]c1=O)C(=O)O [L-quisqualate, (L)-(+)-α-Amino-3,5-dioxo-1,2,4-oxadiazolidine-2-propanoic acid]
EC50 (mGluR5 [3]; read-out: EC50 of L-quisqualate, intracellular calcium levels): 0.0031 ± 0.00036 µM
EC50 (mGluR5 [6]; GET73 0 (absence), read-out: EC50 of L-quisqualate, pCREB levels): 0.0088 ± 0.00068 µM
EC50 (mGluR5 [6]; in the presence of GET73 0.1 nM, read-out: EC50 of L-quisqualate, pCREB levels): 0.009 ± 0.00091 µM
EC50 (mGluR5 [6]; in the presence of GET73 1 nM, read-out: EC50 of L-quisqualate, pCREB levels): 0.0074 ± 0.00066 µM
EC50 (mGluR5 [6]; in the presence of GET73 10 nM, read-out: EC50 of L-quisqualate, pCREB levels): 0.0085 ± 0.00052 µM
EC50 (mGluR5 [6]; in the presence of GET73 100 nM, read-out: EC50 of L-quisqualate, pCREB levels): 0.011 ± 0.00096 µM
EC50 (mGluR5 [6]; in the presence of GET73 1 μM, read-out: EC50 of L-quisqualate, pCREB levels): 0.022 ± 0.00172 µM
EC50 (mGluR5 [6]; in the presence of GET73 10 μM, read-out: EC50 of L-quisqualate, pCREB levels): 0.016 ± 0.00044 µM
EC50 (mGluR5 [7]; GET73 0 (absence)): 40 ± 2.37 µM
EC50 (mGluR5 [7]; in the presence of GET73 0.1 nM): 33 ± 1.57 µM
EC50 (mGluR5 [7]; in the presence of GET73 1 nM): 40 ± 1.44 µM
EC50 (mGluR5 [7]; in the presence of GET73 10 nM): 110 ± 9.5 µM
EC50 (mGluR5 [7]; in the presence of GET73 100 nM): 200 ± 11.1 µM
EC50 (mGluR5 [7]; in the presence of GET73 1 μM): 320 ± 15.7 µM
EC50 (mGluR5 [7]; in the presence of GET73 10 μM): 200 ± 12.6 µM
